SMILES | melting point
Nc1ncc(-c2noc(-c3cnn4c(C(F)(F)F)cc(-c5ccc(F)c(F)c5)nc34)n2)cn1 | 268 °C
CC(C)COCCOc1ccc(OCC(O)CNCCNC(=O)N(C)C)cc1 (centres undefined) | 75 °C
CSc1c[nH]c2cccc([N+](=O)[O-])c12 | 123 to 124 °C
O=C1CN(C(=O)N2CCOCC2)c2ccccc2N1 | 180 °C
Oc1nc(Cl)n(CCOc2ccccc2)n1 | 166 °C
CCCCN(CCCC)c1ccc(C=Cc2ccc(C=CC3=C(C#N)C(=C(C#N)C#N)OC3(C)C(F)(F)F)s2)c(OC)c1 (centres undefined) | 191 to 193 °C
CCCCOc1ccc(CC(C)C(=O)Oc2ccc(-c3ccc(C#N)cc3)cc2)cc1 (centres undefined) | 76.1 to 77.1 °C
CSC(=S)N/N=C/c1ccc(-c2ncn(-c3ccc(OC(F)(F)F)cc3)n2)cc1 | 204 to 206 °C
CCCOn1c(C)nc(N2CCc3ccccc3CC2)c(C#N)c1=O | 132 to 134 °C
COC(=O)C1(C(F)(F)CCCCCOc2ccc(Cl)cc2)CO1 (centres undefined) | 54 to 55 °C
Cc1c(C2=CCC(c3ccccc3)(N(C)C)CC2)n(CC2CO2)c2ccccc12 (centres undefined) | 147 to 150 °C
C(=Cc1cccc2ccccc12)c1ccc(-c2cc3ccccc3o2)cc1 | 154 to 155 °C
O=C(O)COc1ccc(SCc2cc(-c3ccccc3Cl)on2)c2c1CCC2 | 161 to 162 °C
Nc1c(-c2cc(Cl)ccc2O)c2cc(I)ccc2[nH]c1=O | 160 to 162 °C
COc1ccc2c(C(=O)C3CSC(c4cccnc4)N3)c[nH]c2c1 (centres undefined) | 86 to 88 °C
Cc1nnc2c(-c3cccc(C(F)(F)F)c3)cncn12 | 157 to 159 °C
COc1ccc(C(=O)CCC(=O)N[C@@H](C)C(=O)O)cc1F | 126 to 128 °C
O=C(Nc1ccc2ccc(Cl)nc2n1)N1CC=CCC1 | 173 °C
CN1CCc2c(cccc2NC(=O)c2ccccc2Br)C1 | 206 to 208 °C
CC#CCOc1ccc(S(=O)(=O)C2(C(=O)O)CCN(C(CC)CC)CC2)cc1 | 98 °C
CN(C)Cc1ccc(CN)cc1 | 38 to 39 °C
CC(C)(C)NC(=O)c1ccc(I)cc1 | 149 to 150 °C

SMILES | melting point
COc1ccc(N2C(=O)[C@H](O[Si](C(C)C)(C(C)C)C(C)C)[C@@H]2CC(C)C)cc1 | 59 to 60 °C
Nc1sc2c(c1C(=O)c1ccc3c(c1)Cc1ccccc1-3)CCCC2 | 146 to 149 °C
CC(C)[C@H](NC(=O)N1CCOCC1)C(=O)N[C@@H](Cc1ccccc1)C[C@H](O)[C@H](Cc1ccccc1)NC(=O)[C@@H](NC(=O)N1CCOCC1)C(C)C | 198 to 201 °C
COc1ccc2c(c1)C(N)=NCC2 | 114 to 118 °C
COc1cc(C(=O)N[C@@H](CCC(=O)O)C(=O)O)ccc1NCCCc1c(N)nc(N)[nH]c1=O | 165 to 184 °C
CCCCCCCCCCNc1ccc(C(=O)Nc2cc(C(=O)NCCSC)ccc2OC)cc1 | 100 to 104 °C
CNC(=O)ON=C1SCC(=O)N1CCOC | 153 to 155 °C
CNC(=S)C1(c2cccnc2)CCCCCC1=O (centres undefined) | 144 to 146 °C
COC(=O)c1cc(-c2ccc(Cl)cc2)nn1Cc1ccc(Cl)cc1Cl | 120 °C
CCCOc1ccc(-c2ccc(N)nn2)cc1OC | 147 °C
O=C(O)CCCC1Cc2ccccc2C1 | 75 °C
CC(NC(=O)Cc1cc(F)cc(F)c1)C(=O)C1(N)N=C(c2ccccc2F)c2ccccc2N(C)C1=O (centres undefined) | 185 to 188 °C
CCNC(=O)c1c(Cl)cccc1[Si](C)(C)C(C)(C)C | 140 to 142 °C
O=C(O)c1cc(-c2ccccc2S(=O)(=O)NCCO)c2ccc3c(-c4ccccc4S(=O)(=O)NCCO)cc(C(=O)O)nc3c2n1 | > 300 °C
CC(C#CCCCc1ccccc1)N(O)C(N)=O (centres undefined) | 78 to 81 °C
CCCN(CCC)C1CCC2=C(CC(OC)=CC2)C1 (centres undefined) | 47 to 51 °C
O=C(CCCCCS(=O)c1ccc(Cl)cc1)NO (centres undefined) | 125 °C
O=C(O)CCCNC(=O)c1ccc(Cl)cc1O | 131 to 133 °C
Brc1ccc2c(c1)OC(c1ccccc1)(c1ccccc1)O2 | 88 to 89 °C
CCCN(CCC)CC(=O)OC1CC2(C)C(C(C)=O)CCC2C2CCC3CC(O)CCC3(C)C12 (centres undefined) | 116 to 118 °C
CC1(C)OCc2cccc(Cc3c[nH]cn3)c2O1 | 160 to 170 °C
Cc1ccc(CCN2CCN(c3nsc4ccccc34)CC2)c2c1C(C)(C)CC(=O)N2 | 129 °C

SMILES | melting point
COc1cc(C)c(S(C)(=O)=O)cc1C(=O)O | 228 °C
COc1cc(-c2nc3ccc(OCCN4CCCCC4)cc3n2Cc2ccccc2C(F)(F)F)cc(OC)c1OC | 167 °C
Cn1nc(Cl)cc(Br)c1=O | 107 to 108 °C
Cc1nnc2n1-c1ccc(C(=O)O)cc1C(c1ccccc1Cl)=NC2 | 169 to 173 °C
NC(=O)N1CCC(Oc2c(F)c(F)c(F)c(F)c2F)CC1 | 170 to 172 °C
CCOC(=O)c1cn2c3c(c(F)c(F)cc3c1=O)OCC21CCC1 | 255 to 256 °C
CCOC(=O)c1ccc2c(c(C)nn2C)c1C#N | 170 to 176 °C
CC(C)Nc1nc(NN)nc(Cl)c1-c1c(F)cc(F)cc1F | 143 to 150 °C
N#CC(C(N)=O)c1ccc(F)c(Cl)c1 (centres undefined) | 156 to 157 °C
CCOC=NN=C(c1ccc(Cl)cc1)c1ccc(OS(C)(=O)=O)cc1 | 104 to 107 °C
COC(=O)CCN1CCCC2(Cc3ccc(Br)cc3)C(=O)N(c3cc(Cl)nc(Cl)c3)C(=O)N12 (centres undefined) | 157 °C
CC(Oc1cc2c(c(Cl)c1Cl)C(=O)C(C)(C1CCCC1)C2)C(=O)O (centres undefined) | 140 to 142 °C
CC1Nc2ccccc2N2CCc3cc(Cl)cc1c32 (centres undefined) | 167 to 170 °C
NS(=O)(=O)c1ccc(-c2nc(-c3ncn4c(C(F)(F)F)cc(-c5ccc(C(F)(F)F)cc5)nc34)no2)cc1 | 303 °C
COc1cccc(O)c1-c1ccc(C[C@H](NC(=O)c2c(Cl)cccc2Cl)C(=O)O)cc1 | 224 °C
C/C(=C(\C#N)C(N)=S)N1CCCN(c2ccccn2)CC1 | 155 to 157 °C
O=C(OCC1OCCS1=O)c1ccccc1 (centres undefined) | 70 to 72 °C
COc1ccc2cccc(C(CO)CNC(C)=O)c2c1 (centres undefined) | 136 to 138 °C
Cc1oc(-c2ccccc2)nc1CCc1noc2cc(CC(Sc3ccccc3)C(=O)O)ccc12 (centres undefined) | 145 to 147 °C
CS(=O)(=O)c1ccc(-c2cnn(-c3ccc(Cl)c(F)c3)c(=O)c2-c2ccc(F)cc2)cc1 | 102 to 110 °C

Second part, the molecule after the results:

melting point | SMILES
162 to 163 °C | COC(=O)C1=C(C)NC(=O)N(C(=O)OC(C)C)C1c1cccc(Cl)c1Cl (centres undefined)
141 to 143 °C | CC(C)(C)OC(=O)n1cc(C(=O)C2CSC(c3cccnc3)N2C(N)=O)c2ccccc21 (centres undefined)
89.5 to 90.5 °C | COC(=O)c1ccc(OCC2CC(=O)N(c3ccc(OCC(C)(C)O)cc3)C2)cc1 (centres undefined)
97 to 99 °C | COc1ccc(NN=C(Sc2cccc(OC)c2)C(C)=O)cc1
130 to 132 °C | COC(=O)C(C)(C(=O)OC)C(C[N+](=O)[O-])c1ccccc1 (centres undefined)
89 °C | Cc1c(CC(=O)NCCO[N+](=O)[O-])cc(-c2ccc(S(C)(=O)=O)cc2)n1-c1ccccc1
67 to 69 °C | CC(=O)n1c(-c2ccc(C)cc2)cc2ccccc21
90 to 93 °C | CCOc1cc2cc(COC(C)=O)c(COC(C)=O)c(-c3ccnc(-n4ccc5ccccc5c4=O)c3)c2cc1OCC
92 to 94 °C | COc1ccc(/C(=C\C=O)c2ccccc2OC)cc1
189 to 192 °C | NC(=S)NN=C(CCCOC(=O)Nc1cccc2ccccc12)c1ccccc1
167 to 168 °C | CN(C)CCNC1=CC(=O)c2nc(-c3ccc4ccccc4c3)sc2C1=O
149 to 151 °C | COCCc1nc2c(N)nc3ccccc3c2n1CCCNS(=O)(=O)c1ccccc1
239 to 241 °C | O=C(Nc1ccc2c(c1)C(=O)NC2=O)C(=O)N1CCC(Cc2ccccc2)CC1
177 to 178 °C | C[C@@H]1[C@H](c2ccccc2)[C@]1(NS(=O)(=O)c1ccc(-c2cc(C(C)(F)F)on2)s1)C(=O)O
119 to 122 °C | Clc1ccc(-c2cc(Cl)c3ccccc3n2)cc1
102 to 103 °C | O=C(CCC=C(c1ccccc1)c1ccccc1)NCCCCn1ccnc1
170 to 171 °C | CC(C)(CNC(=O)c1cc2cccc(NS(=O)(=O)c3cccs3)c2[nH]1)SCc1ccccc1
90 to 91 °C | COC(=O)n1c(Cl)nc2c(C)cccc21

melting point | SMILES
101 to 104 °C | COC(=O)c1cc(Cn2cncc2C)cc(C(C)(C)C#N)c1
160 to 161 °C | O=C(Nc1nc(-c2ccccc2)cs1)C(=O)OC1CCCCC1
233 to 234 °C | Cc1nc(-n2cnn(Cc3c(C)noc3C)c2=O)sc1C(=O)NCc1cccnc1
163 to 164 °C | CC(C)[Si](Oc1ccc2c(=O)c(N3CCC(O)(c4ccccc4)CC3)coc2c1)(C(C)C)C(C)C
68 to 75 °C | CC(C)(C)SC[C@H](NC(=O)C(CS)Cc1ccccc1)C(=O)O (some centres undefined)
172 to 174 °C | CC(=O)COc1ccn2nc(-c3ccccc3)c(-c3ccc(=O)n(C(C)C)n3)c2c1
147 to 150 °C | O=C(NC(=O)C(c1ccccc1)c1ccccc1)OCCCc1ccncc1
120 to 122 °C | CCN1CCCCC1c1ccccc1C=CC(=O)Nc1ccccc1 (centres undefined)
90 °C | Cc1cc(-n2ccnc2)c2cccc(OCc3c(Cl)ccc(S(=O)(=O)N4CCC[C@H]4C(=O)NCC4CCN(CCCO)CC4)c3Cl)c2n1
210 to 213 °C | CCCc1ccccc1OCCCOc1ccc2c(=O)cc(C(N)=O)oc2c1
177 to 178 °C | CCOC(=O)c1ccc(-c2cnc3c(c2)N(C(=O)c2ccccc2)CCN3)cc1
125 to 127 °C | CCCCCCCNC(=O)Nc1ccccc1C(=O)N1CCN(C(c2ccccc2)c2ccccc2)CC1
> 250 °C | O=C(Oc1ccccc1)N1CCc2[nH]c3c(cnc4cc(Cl)ccc43)c2C1
50 to 52 °C | CC(C)(C)OC(=O)N1CC2CCCCC(C1)C2=O
101 to 103 °C | CC(C)(C)NC(=O)c1nn(-c2ccccc2)c2c1C1CCC2C1 (centres undefined)
208 to 209 °C | c1cncc(OCCCn2cc(-c3cc4nccnc4[nH]3)c3ccccc32)c1
85 to 88 °C | COc1cc(C(F)(F)F)nc(NC(=O)Oc2ccccc2)n1

Source: a melting point compilation (Tetko et al.; mined from patent text by program, amines drawn as free bases though some values may be those of a salt)
